# Results from PMC11856108, “Capsaicin (But Not Other Vanillins) Enhances Estrogen Binding to Its Receptor: Implications for Power Sports and Cancers” (Life, 2025).
# “Also recorded” adds a separate entry of the source. Read-outs that look alike come from different tables or passages of the source.
# Tests used:
# [1] = Binding to steroid hormone by UV spectroscopy
# Description: UV spectroscopy in a crystal plate was used to investigate whether CAP has specificity for estrogen alone or whether it can bind to other naturally occurring hormones. To start, CAP was dissolved in a 1:1 solution of water to ethanol at 1 mg/mL ( 3.27×10^−3 M ) and then diluted by thirds eight times. Next, the hormones were dissolved in a 1:1 solution of water to ethanol at a 1/100 dilution. An amount of 50 μL of each CAP dilution was added to 3 wells of a crystal plate, with one well serving as the control, with another 50 μL of 1:1 water to ethanol added, and the other two serving as experimental duplicates, with 50 μL of the prepared hormone solution added. Then, two additional wells were prepared to serve as controls: one containing 100 μL of 1:1 water to ethanol and the other containing 50 μL of prepared hormone solution and 50 μL of 1:1 water to ethanol. Finally, the plate was incubated for 1 h and read in a Spectramax UV-VIS scanning spectrophotometer, spanning wavelengths from 190 to 400 nm. Data analysis involved the subtraction of observed absorbance values from expected absorbance values generated from the control wells ([CAP + 1:1 solution] + [hormone + 1:1 solution] − [1:1 solution]) and plotting them as a function of CAP concentration. Because the solvent (1:1 solution of water–ethanol) was used as a control and subtracted from all wells, the resulting data reflected only the absorbances of the solute compounds. Since each compound has a different lambda maximal absorbance, analysis of the resulting data required finding one common wavelength at which the additions and subtractions of the spectra could be carried out and at which the absorbance of each compound was maximized.
# Experiments were also performed to test whether the enhancement or antagonism observed in estradiol binding to the ESR1 might be due to vanilloid compounds binding directly to estradiol or to related steroidal hormones, perhaps protecting them from oxidation or forming a complex that prevented the estradiol binding to its receptor. No vanilloid compound bound to a measurable degree to estradiol or any other steroidal hormone tested.
# insulin receptor (IR) = experiment: Effect on INS binding to its receptor by ultraviolet spectroscopy; conditions: INS 1 µM with CAP 0.1-100 µM, or CAP 25 µM with INS 10 nM-10 µM
# Description: [17, 19, 20, 21, 22, 23]. […] Because CAP binds to INS, it was possible that it might antagonize INS binding to its receptor. […] Two types of ultraviolet spectroscopy experiments were performed. In one, INS (1 µM) and the IR were kept constant and the concentration of CAP increased from 0.1 µM to 100 µM. In the other, the CAP (25 µM) and IR were kept constant and the concentration of INS increased from 10 nM to 10 µM. In neither experiment was any significant change in the INS binding curve observed.
# T1DM rats = test system: T1DM rats; set-up: method as in PMID 28230360; conditions: cited from earlier work
# Human (male) [2] = test system: Human (male); set-up: method as in PMID 8926537; conditions: cited from earlier work
# Human (male) [3] = test system: Human (male); set-up: method as in PMID 17615999; conditions: cited from earlier work
# Human, Mice = test system: Human, Mice; set-up: method as in PMID 29772784; conditions: Both ***; cited from earlier work
# Mice [4] = test system: Mice; set-up: method as in PMID 23958300; conditions: cited from earlier work
# Human HepG2 cells [5] = test system: Human HepG2 cells; set-up: method as in PMID 30987128; conditions: cited from earlier work
# Human HepG2 cells [6] = test system: Human HepG2 cells; set-up: method as in PMID 25621172; conditions: cited from earlier work
# Human [7] = test system: Human; set-up: method as in PMID 25621172; conditions: cited from earlier work
# Human [8] = test system: Human; set-up: method as in PMID 30668390; conditions: cited from earlier work
# [9] = test system: Human (prostate cancer cells); set-up: method as in PMID 19705615; conditions: cited from earlier work
# [10] = test system: Human nasopharyngeal carcinoma; set-up: method as in PMID 28644386; conditions: cited from earlier work
# Human (NSCLC cells) = test system: Human (NSCLC cells); set-up: method as in PMID 24926985; conditions: cited from earlier work
# Rats (female) = test system: Rats (female); set-up: method as in PMID 29294454; conditions: cited from earlier work
# Mice [11] = test system: Mice; set-up: method as in doi:10.32604/biocell.2023.028222; conditions: cited from earlier work
# [12] = molecular target: insulin (human recombinant) (Homo sapiens, UniProt P01308); experiment: Binding to insulin by ultraviolet spectroscopy; conditions: UV spectroscopy
# Chain of insulin (human recombinant) (P01308 25-54 limits assumed): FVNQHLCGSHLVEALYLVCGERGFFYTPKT
# Chain of insulin (human recombinant) (P01308 90-110 limits assumed): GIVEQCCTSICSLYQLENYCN
structure (smiles),measurement,setting,value
"COc1cc(CNC(=O)CCCC/C=C/C(C)C)ccc1O [Capsaicin, trans-8-methyl-N-vanillyl-6-nonenamide]","Binding (Kd) 4-Androstene-3,17-dione",[1],No binding
same,Binding (Kd) 5-Pregnan-3β-OL-2O-one,[1],No binding
same,Binding (Kd) Estradiol,[1],No binding
same,Binding (Kd) Estriol,[1],No binding
same,Binding (Kd) Progesterone,[1],No binding
same,Binding (Kd) Estradiol,[1]; listed as capsaicin,did not bind directly to estradiol
same,effect on INS binding to its receptor,insulin receptor (IR),no observable effect
same,effect on INS binding to its receptor,insulin receptor (IR); listed as CAP,"does not, apparently, alter INS binding to its receptor; also recorded: did not significantly affect INS binding to its receptor"
same,Capsaicin Upregulates,T1DM rats,>Serum INS (CAP 6 mg/kg)
same,Downregulates or Inhibits,T1DM rats,>Fasting blood glucose levels and serum level of glycosylated protein
same,Capsaicin Upregulates,Human (male) [2],>Fat metabolism through neuroadrenergic effects of TRPV-1 activation
same,Capsaicin Upregulates,Human (male) [3],>Sympathetic modulation (adrenal catecholamine secretion) and thermogenesis
same,Capsaicin Upregulates,"Human, Mice",>INS sensitivity—TRPV-1 activation stimulated GLP-1 release * >Fatty acid oxidation—modulated via TRPV1 activation >INS secretion from pancreatic β-cells ***
same,Downregulates or Inhibits,"Human, Mice",> Inflammatory factors **
same,Capsaicin Upregulates,Mice [4],>Glucose uptake via AMPK activation and increasing p38 MAPK phosphorylation >Stimulation of ROS generation
same,Capsaicin Upregulates,Human HepG2 cells [5],>Activation of AMPK pathway
same,Downregulates or Inhibits,Human HepG2 cells [5],> Lipogenesis > Inhibition of AKT/mTOR pathway
same,Cancer-Related Effects,Human HepG2 cells [6],>Sensitizes human cancer cells to cytocidal effects of chemotherapeutic agents >Selectivity to kill cancer cells with minimal damage to normal cells
same,Downregulates or Inhibits,Human HepG2 cells [6],>MDR-1 pathway → downregulates MDR-1 transcription (improves sensitivity)
same,Cancer-Related Effects,Human [7],>Induces apoptosis
same,Downregulates or Inhibits,Human [7],>Bax/Bcl2 pathway → decreased expression of Bcl-2 (prosurvival gene)
same,Upregulates,Human [7],>Bax/Bcl2 pathways → increased expression of Bax (apoptotic gene)
same,Cancer-Related Effects,Human [8],>Inhibits cell proliferation
same,Downregulates or Inhibits,Human [8],>Cell cycle arrest in G0/G1 and G2/M phase >Suppresses ROS production
same,Upregulates,Human [8],>Increase in reduced glutathione and DPPH
same,Cancer-Related Effects,[9],>Induces apoptosis
same,Upregulates,[9],>Cleavage of procaspase-3 to caspase-3 >Interaction with caspase-1 >TRPV1-mediated Ca+ influx
same,Cancer-Related Effects,[10],>Regulation of autophagic pathways
same,Upregulates,[10],>Increases levels of LC3-II and Atg5 >Enhances p62 and Fap-1 degradation
same,Cancer-Related Effects,Human (NSCLC cells),>Inhibition of tumor angiogenesis and metastasis
same,Downregulates or Inhibits,Human (NSCLC cells),>VEGF expression
same,Upregulates,Human (NSCLC cells),>Activates p53-SMAR1 positive feedback loop >Decreases endothelial cell migration and network reformation
same,Cancer-Related Effects,Rats (female),>Blocks formation of nitrosomethylurea-induced mammary tumors
same,Downregulates or Inhibits,Rats (female),>Decreased antioxidant enzymes
same,Upregulates,Rats (female),">Increases estradiol, progesterone, CEA and malondialdehyde levels"
same,Cancer-Related Effects,Mice [11],>Attenuates testosterone-induced prostate growth
same,Kd,"[12]; Binding (Kd) Insulin, Table 1",4 µM
same,binding to insulin (in words),[12],bound to insulin
same,Kd,[12]; binding constant to INS,~4 µM
